Target: human cytochrome P450 3A4 (CYP3A4) (Homo sapiens, UniProt P08684, C58T/C64A/C98S/F215C/C239S/C468G)
Test: purified enzyme with CPR: fluorescent HFC production and NADPH consumption
Assay type: biochemical

human cytochrome P450 3A4 (CYP3A4), sequence (P08684 13-503 C58T/C64A/C98S/F215C/C239S/C468G): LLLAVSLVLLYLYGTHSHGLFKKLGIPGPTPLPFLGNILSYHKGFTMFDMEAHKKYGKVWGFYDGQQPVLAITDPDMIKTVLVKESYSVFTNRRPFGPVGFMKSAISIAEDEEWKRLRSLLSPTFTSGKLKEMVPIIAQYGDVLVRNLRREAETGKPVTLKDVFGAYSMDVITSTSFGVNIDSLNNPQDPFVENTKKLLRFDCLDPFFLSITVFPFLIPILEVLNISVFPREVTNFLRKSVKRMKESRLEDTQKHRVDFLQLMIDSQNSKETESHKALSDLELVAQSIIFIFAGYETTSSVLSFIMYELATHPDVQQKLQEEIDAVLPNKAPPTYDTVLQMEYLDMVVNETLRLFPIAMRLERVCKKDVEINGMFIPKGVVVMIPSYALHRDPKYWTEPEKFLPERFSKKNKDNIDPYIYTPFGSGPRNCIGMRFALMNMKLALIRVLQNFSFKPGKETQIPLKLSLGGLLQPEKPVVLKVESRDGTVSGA

**Q.** With O=c1cc(C(F)(F)F)c2ccc(OCc3ccccc3)cc2o1 [BFC, 7-benzyloxy-4-trifluoromethylcoumarin] as the compound, how does the “HFC produced^b” value read?
**A.** 0.0044 ± 0.0008 μmol/min/μmol enzyme

From PMC6450699 (Archives of biochemistry and biophysics, 2018)
